Assay results published in PubChem BioAssay AID588778 (Southern Research Institute, 2011).
Converted amounts (≈) assume the structure as drawn. The source made the active and inactive calls. No rule for the calls is given here.

System: Vibrio cholerae motility, OD read-out
Test: Vibrio cholerae motility inhibitors, OD read-out (AID 588778)

SMILES | IC50
O=[N+]([O-])c1nn(Cc2c(F)cccc2Cl)cc1Cl | 1.4 µg/mL (≈ 4.83 µM)
O=C(N/C(=C/c1cccs1)c1nc2ccccc2[nH]1)c1cccs1 | 16.8 µg/mL (inactive) (≈ 47.8 µM)
CC(NC(=O)c1ccc([N+](=O)[O-])o1)C12CC3CC(CC(C3)C1)C2 (configuration not stated) | 3.3 µg/mL (inactive) (≈ 10.4 µM)
CC(=O)NC(=S)NNC(=O)c1ccc(-c2ccccc2)cc1 | 1.96 µg/mL (inactive) (≈ 6.25 µM)
O=[N+]([O-])c1nn(Cc2ccc(F)cc2)cc1Br | 4.1 µg/mL (≈ 13.7 µM)
CC[n+]1c(/C=C/c2ccc(-c3ccc([N+](=O)[O-])cc3)o2)ccc2ccccc21 | 15.3 µg/mL (inactive)
COC(=O)NC12CC3CC(CC(C3)C1)C2 | 16.4 µg/mL (inactive) (≈ 78.4 µM)
NC(=O)NNc1c2ccccc2nc2ccccc12 | 13 µg/mL (inactive) (≈ 51.5 µM)
COC(=O)c1sc2cc(NC(=S)NC(C)c3ccc4c(c3)OCO4)ccc2c1Cl (configuration not stated) | 46.8 µg/mL (inactive) (≈ 104 µM)
FC(F)(F)c1ccccc1-n1c(-c2cccnc2)n[nH]c1=S | 6.15 µg/mL (inactive) (≈ 19.1 µM)
Cc1ccc(C)c(Nc2nc(NCCO)c3ccccc3n2)c1 | 6.87 µg/mL (≈ 22.3 µM)
C=CCNC(=S)Nc1ccc(Cl)c(Cl)c1 | 26.4 µg/mL (inactive) (≈ 101 µM)
Nc1nc(NC(=O)c2ccco2)nn1-c1ccccc1 | 11.3 µg/mL (≈ 42 µM)
Cc1ccc(OCCn2ccnc2)c(Cl)c1 | 25.9 µg/mL (inactive) (≈ 109 µM)
Nc1nc(-c2ccccc2)cc(N2CCCCC2)n1 | 14.3 µg/mL (inactive) (≈ 56.2 µM)
O=C1CC(Sc2ccccc2C(=O)O)C(=O)N1 (configuration not stated) | 8.99 µg/mL (inactive) (≈ 35.8 µM)
O=C(Oc1ccc(Cl)c2cccnc12)c1cccs1 | 12.8 µg/mL (inactive) (≈ 44.2 µM)
